Experimental data taken from PubChem BioAssay AID977630 (Broad Institute, 2014).
Records with an inconclusive call do not appear. The source made the active and inactive calls.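 The calls were made as follows: active = Normal-ribosome green reporter loss at least double humanized-ribosome red reporter loss, with overall culture growth inhibition under a set limit; inconclusive = no clear call, values can overlap the other calls; inactive = the rest.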

System: E. coli wild-type GFP growth, mixed culture, 24 h
Assay: E. coli growth inhibition, wild-type GFP versus H38 humanized RFP strain – H38 mutant RFP vs wild-type GFP, cherry-pick, dose response (AID 977630)
[1] = E. coli mixed culture total OD600 growth, 24 h

SMILES	AC50	AC50 [1]
Cc1nn(-c2cccc(Cl)c2)nc1C(=O)O	> 100 µM (inactive)	
CC1CCCN(C(=O)C(C)Nc2cc(Cl)ccc2N2CCOCC2)C1 (configuration not stated)	> 100 µM (inactive)	
O=C1OC[C@@H]2CCCN2C(=O)[C@@H](CC(=O)N(CCO)Cc2ccccc2)C/C=C\C[C@H]1Cc1ccc(F)cc1	> 100 µM (inactive)	
Cc1onc(-c2ccccc2Cl)c1C(=O)Nc1ccc(Cl)cn1	> 100 µM (inactive)	
O=C(Nc1ccc2nc(-c3cccnc3)[nH]c2c1)c1ccco1	> 100 µM (inactive)	
CCN(CC)C(=O)c1ccc(COc2ccccc2Cl)o1	> 100 µM (inactive)	> 100 µM
CCOc1ccc(OCCn2c(=S)[nH]c3c(N)ncnc32)cc1	> 100 µM (inactive)	
CC(C)(C)N(Cc1ccccc1)C(=O)COC(=O)Cn1cnc2ccccc2c1=O	> 100 µM (inactive)	
O=c1[nH]nc(SCc2ccccc2)n1C1CC2C=CC1C2 (configuration not stated)	> 100 µM (inactive)	49.8 µM
COc1cc2cc(C(=O)Nc3ccc4c(c3)OCCO4)[nH]c2cc1OC	> 100 µM (inactive)	> 100 µM
CC(=O)Nc1ccc(S(=O)(=O)Nc2cccc(-c3nc4cc(C)ccc4o3)c2)cc1	> 100 µM (inactive)	> 100 µM
Cc1ccc(NS(=O)(=O)c2ccc3c(c2)CCC(=O)N3)cc1C	> 100 µM (inactive)	
CCCC(=O)Nc1sc2c(c1C(=O)Nc1ccccn1)CCCC2	> 100 µM (inactive)	> 100 µM
O=S1(=O)N[C@H](Cc2ccccc2)COc2cccc(N3CCC[C@H]3CO)c21	> 100 µM (inactive)	
CC(C)(C)CC(=O)NCCc1csc(-c2ccccc2)n1	> 100 µM (inactive)	
O=S(=O)(NCc1ccc2c(c1)OCO2)c1ccc2c(c1)oc1ccccc12	> 100 µM (inactive)	27.2 µM
Cc1cccc(CN2C(=O)c3ccccc3Sc3ccc(C(=O)NCCN4CCOCC4)cc32)c1		> 100 µM
Cc1noc(NS(=O)(=O)c2ccc(NC(=O)c3cc(-c4ccccc4Cl)nc4ccccc34)cc2)c1C	> 100 µM (inactive)	> 100 µM

SMILES	AC50	AC50 [1]
O=C(COC(=O)C1CC2C=CC1C2)Nc1ccc([N+](=O)[O-])cc1 (configuration not stated)	> 100 µM (inactive)	> 100 µM
COc1ccccc1CNC(=O)CN1C(=O)NC(c2ccccc2)(c2ccccc2)C1=O	> 100 µM (inactive)	> 100 µM
COc1ccc(CSc2nc3ccccc3c(=O)n2CCCN2CCOCC2)cc1F	> 100 µM (inactive)	
Cc1ccc(-n2nc(C)c3c(C)c(CCC(=O)O)c(C)nc32)cc1C	> 100 µM (inactive)	> 100 µM
CCOC(=O)C(CC)Sc1cc(C)nc2ccc(OC)cc12 (configuration not stated)		> 100 µM
CC(=O)N(CCC1(c2ccc(C)cc2)CCOC(C(C)C)C1)Cc1ccco1 (configuration not stated)	> 100 µM (inactive)	
Cc1ccsc1C(=O)C1CCCN(Cc2cc(F)ccc2-n2cccn2)C1 (configuration not stated)	> 100 µM (inactive)	> 100 µM
COC(=O)CC#C[C@H](C)[C@@H](NS(=O)(=O)c1ccc([N+](=O)[O-])cc1)C(C)(C)C	> 100 µM (inactive)	
CCN(CC)S(=O)(=O)c1cccc(NC(=O)CNc2cccc(S(=O)(=O)N3CCCC3)c2)c1	> 100 µM (inactive)	
CC(C)(C)C1CCC(C(=O)OCC(=O)N2CCN(C(=O)c3ccco3)CC2)CC1 (configuration not stated)	> 100 µM (inactive)	
O=C(CCC1CCCN(C(=O)c2ccsc2)C1)N1CCN(c2ccccn2)CC1 (configuration not stated)	> 100 µM (inactive)	
CCN(CC(=O)Nc1cccc(C#N)c1)CC(=O)Nc1cccc(OC)c1	> 100 µM (inactive)	
CCOC(=O)C1(CCCc2ccccc2)CCN(C(=O)CCn2cncn2)CC1	> 100 µM (inactive)	
Cc1c(Cc2ccccc2)sc(NC(=O)Cc2ccccc2)c1C(N)=O	> 100 µM (inactive)	
COc1ccc(OC)c(NC(=O)COC(=O)C2CCN(C(=O)c3ccc(Cl)cc3)CC2)c1	> 100 µM (inactive)	
O=S(=O)(c1ccccc1)N1CCN=C1SCc1cccc(Cl)c1	> 100 µM (inactive)	> 100 µM
Cc1ccc(SCC(=O)Nc2ccc(S(=O)(=O)Nc3nccs3)cc2)cc1	> 100 µM (inactive)	
